This note sets out measurements from patent US20240279615A1, “COMPOSITIONS COMPRISING DIPEPTIDES AND TRACE ELEMENTS” (Evonik Operations GmbH, priority 2021, published 2024).

SMILES strings stand for the structures. “Also recorded” adds a separate entry of the source. Where a SMILES comes first, the peptide text is derived from it. Bridges are numbered along the chain shown (N, C = ends). Roman numbers before positions name the chains, in order.

For data set [1], the system named is Agarabi CHO cells. Nature of the data set: In vitro cytotoxicity assay (CellTiter-Glo ATP viability) on Agarabi CHO cells. The following applies: for positive effect on viability of dipeptide combined with Cu(II): Agarabi CHO cells, 96 h, selected combinations of dipeptide and Cu(II). Type of data set: cell-based. The procedure:
(§1) Human mesenchymal stem cells (MSCs) were cultivated in MesenCult™-ACF Plus Culture Kit (Stemcell Technologies). The medium was prepared according to the manufacturer's instructions with addition of […] gentamicin and 2 mM I-glutamine. Agarabi CHO cells were cultivated in ActiPro medium supplemented with 6 mM I-glutamine. “Complete growth medium” references the medium with added supplements used for the cultivation of the corresponding cell type.
(§2) Stock solutions of Cu(II), I-cysteine, N, N′-di-I-alanyl-I-cysteine ((Ala-Cys)2) and N, N′-di-I-lysyl-I-cysteine ((Lys-Cys)2) were brought into solution in the corresponding complete growth medium immediately prior to their use. For the assay performed with combinations of Cu(II) and I-cysteine, (Ala-Cys)2 or (Lys-Cys)2 on MSCs, the dissolved single compounds were mixed together at 2× treatment concentration. On MSCs, I-cysteine and the dipeptides were tested at 0.5 mM, 1 mM and 5 mM; Cu(II) was tested at 0.2 μM, 1 μM and 5 μM. For the treatment of Agarabi CHO cells, serial dilutions of I-cysteine, (Ala-Cys)2 and (Lys-Cys)2 stock solutions in complete growth medium were performed with 2× treatment concentration at each dilution step. On Agarabi CHO cells, I-cysteine and the dipeptides were tested at 2.5 mM, 5 mM and 10 mM; Cu(II) was tested at 2.5 μM, 10 μM and 40 μM.
(§3) The cytotoxicity of the test compounds and their combinations was assayed on MSCs and Agarabi CHO cells cultivated in white 96-well cell culture plates at 5.000 cells/well. MSCs (50 μL/well) were cultivated for 24 h in a CO2-incubator (37° C., 5% CO2, 95% humidity) to ensure cell adhesion. This was followed by the addition of the prepared 2× concentrated test compounds and mixtures (50 μL/well). […]
(§4) After incubation, the viability of the treated cells was determined based on adenosine triphosphate (ATP) quantification using the CellTiter-Glo® Luminescent Cell Viability Assay (Promega) according to the manufacturer's instructions.
(§5) To calculate the cell viability, resulting luminescence values were averaged and normalized to the signal emitted by the untreated cells.
(Cellular ATP, detected with luciferase, serves as a proxy for viable cell number.)

The test system of data set [2] is Human mesenchymal stem cells (MSCs). Nature of the data set: In vitro cytotoxicity assay (CellTiter-Glo ATP viability) on MSCs. Type of data set: cell-based. The following applies: for positive effect on viability of dipeptide combined with Cu(II): 24 h, selected combinations of dipeptide and Cu(II). The procedure: as §1, §2, §3, §4, §5

In the case of `NCCCC[C@H](N)C(=O)N[C@@H](CSSC[C@H](NC(=O)[C@@H](N)CCCCN)C(=O)O)C(=O)O` [(Lys-Cys)2, N,N′-di-L-lysyl-L-cystine] (I: H-Lys-Cys-OH / II: H-Lys-Cys-OH; disulfide I:2-II:2), the “positive effect on viability of dipeptide combined with Cu(II)” value in data set [1] and in data set [2] was “pronounced positive effect on viability; also recorded: viability was even increased” each time.
`C[C@H](N)C(=O)N[C@@H](CSSC[C@H](NC(=O)[C@H](C)N)C(=O)O)C(=O)O` [(Ala-Cys)2, N,N′-di-L-alanyl-L-cystine] (I: H-Ala-Cys-OH / II: H-Ala-Cys-OH; disulfide I:2-II:2): the “positive effect on viability of dipeptide combined with Cu(II)” value in data set [1] and in data set [2] was “pronounced positive effect on viability; also recorded: viability was even increased” in each case.
In the case of `O.O.O.O.O.O=S(=O)([O-])[O-].[Cu+2]` [Cu(II), Copper (II) sulfate pentahydrate, reference compound], the “effect of single component on cell viability” value was “did not have a negative effect on viability” in data set [1] (CHO cells, single component control, Cu(II) up to 40 μM); “did not have a negative effect on viability” in data set [2] (single component controls, L-cysteine and dipeptides up to 5 mM, Cu(II) up to 5 μM).
